Results published in patent publication US12503463B2, “Aliphatic acid amide derivative” (Sumitomo Pharma Co., Ltd., priority 2019, dated 2025).

Assay: Test 3-1: metabolic stability test in human hepatic microsome
Assay type: in vitro ADME
Settings: Test 3-1: microsome 0.1 mg/mL, test compound 0.1 μmol/L, 37° C., 30 minutes
Experimental: Test 3-1: Metabolic Stability Test in Human Hepatic Microsome
The metabolic stability of the present compound in human hepatic microsome was evaluated as mentioned below. Human hepatic microsome was obtained from Xenontech. Human hepatic microsome, NADPH, and each test compound were mixed in 25 mmol/L phosphate buffer solution (pH 7.4) to reach the following concentrations as shown below, and the mixture was incubated at 37° C. for 30 minutes. • Human hepatic microsome: 0.1 mg/mL • NAPDH: 3.2 mmol/L • Test compound: 0.1 μmol/L
The residual ratio of test compound in each sample after 30 minutes was measured by LC-MS, and the metabolic stability in human hepatic microsome was calculated from the following formula. Metabolic stability in human hepatic microsome(mL/min/mg protein)=−LN(residual ratio)/30/0.1

Structure (SMILES)	Metabolic stability in human hepatic microsome
CCN(CCN1CCC(c2noc3cc(F)ccc23)CC1)C(=O)[C@@H](C)O [Example 1, (2R)-N-Ethyl-N-{2-[4-(6-fluoro-1,2-benzoisoxazol-3-yl)piperidin-1-yl]ethyl}-2-hydroxypropanamide]	<0.05 mL/min/mg protein
CCN(CCN1CCC(n2ncc3cc(F)ccc32)CC1)C(=O)CCO [Example 2, N-Ethyl-N-{2-[4-(5-fluoro-1H-indazol-1-yl)piperidin-1-yl]ethyl}-3-hydroxypropanamide]	<0.05 mL/min/mg protein
CCN(CCN1CCC(n2ncc3cc(F)ccc32)CC1)C(=O)[C@@H](C)O [Example 3, (2R)-N-Ethyl-N-{2-[4-(5-fluoro-1H-indazol-1-yl)piperidin-1-yl]ethyl}-2-hydroxypropanamide]	<0.05 mL/min/mg protein
CCN(CCN1CCC(c2noc3cc(F)ccc23)CC1)C(=O)C(C)O (stereo not shown) [Example 4]	<0.05 mL/min/mg protein
CCN(CCN1CCC(c2noc3cc(F)ccc23)CC1)C(=O)C(C)(C)O [Example 6]	0.053 mL/min/mg protein
CCN(CCN1CCC(c2noc3cc(F)ccc23)CC1)C(=O)C(C)(C)CO [Example 7]	0.08 mL/min/mg protein
CCN(CCN1CCC(c2noc3cc(F)ccc23)CC1)C(=O)C1CCC(O)CC1 (stereo not shown) [Example 9]	<0.05 mL/min/mg protein
CCN(CCN1CCC(c2noc3cc(F)ccc23)CC1)C(=O)CC(C)O (stereo not shown) [Example 10]	<0.05 mL/min/mg protein
CCN(CCN1CCC(c2noc3cc(F)ccc23)CC1)C(=O)C1(O)CCOCC1 [Example 11]	<0.05 mL/min/mg protein
CCN(CCN1CCC(c2noc3cc(F)ccc23)CC1)C(=O)CO [Example 12]	0.089 mL/min/mg protein
CCN(CCN1CCC(c2noc3cc(F)c(C)cc23)CC1)C(=O)[C@H](C)O [Example 13]	0.054 mL/min/mg protein
CCN(CCN1CCC(c2noc3cc(F)ccc23)CC1)C(=O)C(O)COC (stereo not shown) [Example 18, N-Ethyl-N-{2-[4-(6-fluoro-1,2-benzoisoxazol-3-yl)piperidin-1-yl]ethyl}-2-hydroxy-3-methoxypropanamide]	<0.05 mL/min/mg protein
CCN(CCN1CCC(c2n[nH]c3cc(F)ccc23)CC1)C(=O)C(C)O (stereo not shown) [Example 19, N-Ethyl-N-{2-[4-(6-fluoro-1H-indazol-3-yl)piperidin-1-yl]ethyl}-2-hydroxypropanamide]	<0.05 mL/min/mg protein
CCN(CCN1CCC(c2c[nH]c3cc(F)ccc23)CC1)C(=O)[C@H](C)O [Example 20, (2S)-N-Ethyl-N-{2-[4-(6-fluoro-1H-indol-3-yl)piperidin-1-yl]ethyl}-2-hydroxypropanamide]	<0.05 mL/min/mg protein
CCN(CCN1CCC(n2ncc3cc(F)ccc32)CC1)C(=O)[C@H](C)O [Example 21, (2S)-N-Ethyl-N-{2-[4-(5-fluoro-1H-indazol-1-yl)piperidin-1-yl]ethyl}-2-hydroxypropanamide]	<0.05 mL/min/mg protein
CCN(CCN1CCC(c2c[nH]c3ccccc23)CC1)C(=O)C(C)O (stereo not shown) [Example 22, N-Ethyl-2-hydroxy-N-{2-[4-(1H-indol-3-yl)piperidin-1-yl]ethyl}propanamide]	<0.05 mL/min/mg protein
CCN(CCN1CCC(c2c[nH]c3ccccc23)CC1)C(=O)[C@H](C)O [Example 23, (2S)-N-Ethyl-2-hydroxy-N-{2-[4-(1H-indol-3-yl)piperidin-1-yl]ethyl}propanamide]	<0.05 mL/min/mg protein
CCN(CCN1CCC(c2noc3cc(F)ccc23)CC1)C(=O)C1(O)CC1 [Example 24]	<0.05 mL/min/mg protein
CCN(CCN1CCC(c2noc3ccccc23)CC1)C(=O)C(C)O (stereo not shown) [Example 25]	<0.05 mL/min/mg protein
CCN(CCN1CCN(c2noc3ccccc23)CC1)C(=O)C(C)O (stereo not shown) [Example 26]	<0.05 mL/min/mg protein
CCN(CCN1CCN(c2noc3cc(F)ccc23)CC1)C(=O)C(C)O (stereo not shown) [Example 27]	<0.05 mL/min/mg protein
CC[C@@H](O)C(=O)N(CC)CCN1CCC(c2noc3cc(F)ccc23)CC1 [Example 29]	<0.05 mL/min/mg protein
CC(O)C(=O)N(CCN1CCC(c2noc3cc(F)ccc23)CC1)CC1CC1 (stereo not shown) [Example 30]	<0.05 mL/min/mg protein
CC(O)C(=O)N(CCN1CCC(c2noc3cc(F)ccc23)CC1)C(C)C (stereo not shown) [Example 31]	<0.05 mL/min/mg protein
CCN(CCN1CCC(c2noc3cc(F)ccc23)CC1)C(=O)C(O)C(F)(F)F (stereo not shown) [Example 34]	<0.05 mL/min/mg protein
CC(C)N(CCN1CCC(c2noc3cc(F)ccc23)CC1)C(=O)CCO [Example 35]	<0.05 mL/min/mg protein

Structure (SMILES)	Metabolic stability in human hepatic microsome
CCN(CCN1CCC(c2noc3cc(F)ccc23)CC1)C(=O)C(F)(F)CO [Example 36]	<0.05 mL/min/mg protein
CCN(CCN1CCC(c2noc3cc(F)ccc23)CC1)C(=O)C(C)CO (stereo not shown) [Example 37]	<0.05 mL/min/mg protein
CCN(CCCN1CCC(c2noc3cc(F)ccc23)CC1)C(=O)[C@H](C)O [Example 38]	<0.05 mL/min/mg protein
CCCN(CCN1CCC(c2noc3cc(F)ccc23)CC1)C(=O)C(C)O (stereo not shown) [Example 39]	<0.05 mL/min/mg protein
[2H]C(C)(O)C(=O)N(CC)CCN1CCC(c2noc3cc(F)ccc23)CC1 (stereo not shown) [Example 40]	<0.05 mL/min/mg protein
CC(C)N(CCN1CCC(c2noc3cc(F)ccc23)CC1)C(=O)[C@H](C)O [Example 41]	<0.05 mL/min/mg protein
CC(C)N(CCN1CCC(c2noc3cc(F)ccc23)CC1)C(=O)[C@@H](C)O [Example 42]	<0.05 mL/min/mg protein
CCN(CCN1CCC(c2noc3cc(F)ccc23)CC1)C(=O)[C@H]1CC[C@H](O)CC1 [Example 43]	<0.05 mL/min/mg protein
CCN(CCN1CCC(c2noc3cc(F)ccc23)CC1)C(=O)[C@H]1CC[C@@H](O)CC1 [Example 44]	<0.05 mL/min/mg protein
CCN(CCN1CCC(c2noc3ccc(F)cc23)CC1)C(=O)[C@H](C)O [Example 45]	<0.05 mL/min/mg protein
CCN(CCN1CCC(c2noc3cc(F)ccc23)CC1)C(=O)C1CC(O)C1 (stereo not shown) [Example 46]	<0.05 mL/min/mg protein
CCN(CCN1CCC(c2c[nH]c3ccccc23)CC1)C(=O)CCO [Example 47]	<0.05 mL/min/mg protein
CCN(CCN1CCC(c2c[nH]c3cc(F)ccc23)CC1)C(=O)CCO [Example 48]	<0.05 mL/min/mg protein
CCN(CCN1CCC(c2c[nH]c3ccccc23)CC1)C(=O)[C@@H](C)O [Example 49]	<0.05 mL/min/mg protein
CCN(CCN1CCC(n2ccc3cc(F)ccc32)CC1)C(=O)C(C)O (stereo not shown) [Example 50]	<0.05 mL/min/mg protein
CCN(CCCN1CCC(c2noc3cc(F)ccc23)CC1)S(=O)(=O)CCO [Example 53]	<0.05 mL/min/mg protein
CCN(CCCN1CCC(c2noc3ccccc23)CC1)S(=O)(=O)C(C)CO (stereo not shown) [Example 54]	<0.05 mL/min/mg protein
CCN(CCCN1CCN(c2noc3cc(F)ccc23)CC1)S(=O)(=O)C(C)CO (stereo not shown) [Example 55]	0.059 mL/min/mg protein
CCN(CCCN1CCC(c2noc3cc(F)ccc23)CC1)S(=O)(=O)C(C)CO (stereo not shown) [Example 56]	<0.05 mL/min/mg protein
CCN(CCN1CCC(c2c[nH]c3ccccc23)CC1)S(=O)(=O)CCO [Example 57]	0.06 mL/min/mg protein
CCN(CCN1CCC(c2noc3cc(F)c(C)cc23)CC1)S(=O)(=O)CCO [Example 58]	<0.05 mL/min/mg protein
CCN(CCN1CCC(c2noc3ccc(C)cc23)CC1)S(=O)(=O)CCO [Example 59]	0.079 mL/min/mg protein
CCN(CCN1CCC(c2noc3ccccc23)CC1)S(=O)(=O)CCO [Example 61]	<0.05 mL/min/mg protein
CCN(CCN1CCC(c2c[nH]c3cc(F)ccc23)CC1)S(=O)(=O)CCO [Example 62]	<0.05 mL/min/mg protein
CCN(CCN1CCC(n2ncc3cc(F)ccc32)CC1)S(=O)(=O)CCO [Example 63]	<0.05 mL/min/mg protein
CCN(CCN1CCC(n2ncc3cc(F)ccc32)CC1)S(=O)(=O)C(C)CO (stereo not shown) [Example 64]	0.097 mL/min/mg protein
